Laboratory results taken from patent publication US10973784B2, “Compositions and methods for treating Alzheimer's disease and Parkinson's disease” (Biotie Therapies, Inc., priority 2016, dated 2021).
Several values for one entry are separate records, joined by “and”; a condition that tells them apart may be missing. Equal values may be shown once.

Tests used:
[1] = Plasma concentrations of SYN120 at 100 mg QD after titration (Example 10); type: in vivo, human; conditions: for Plasma concentration of SYN120, individual samples: 100 mg QD after titration; for Plasma concentration of SYN120, Max / Plasma concentration of SYN120, Median / Plasma concentration of SYN120, Min / Plasma concentration of SYN120, Mean: 100 mg QD
Description: Patients taking SYN120 are titrated from a starting dose of 20 mg SYN120 QD for the first 7 days, followed by 50 mg SYN120 QD for the next 7 days, then 100 mg SYN120 QD for the remaining portion of the study. Plasma samples are taken on study weeks 4, 8 and 16, and a shown below in Table 17.

5-HT2A receptor = 5-HT2A receptor (Homo sapiens, UniProt P28223); conditions: cited from earlier work
Chain of 5-HT2A receptor (P28223 whole entry): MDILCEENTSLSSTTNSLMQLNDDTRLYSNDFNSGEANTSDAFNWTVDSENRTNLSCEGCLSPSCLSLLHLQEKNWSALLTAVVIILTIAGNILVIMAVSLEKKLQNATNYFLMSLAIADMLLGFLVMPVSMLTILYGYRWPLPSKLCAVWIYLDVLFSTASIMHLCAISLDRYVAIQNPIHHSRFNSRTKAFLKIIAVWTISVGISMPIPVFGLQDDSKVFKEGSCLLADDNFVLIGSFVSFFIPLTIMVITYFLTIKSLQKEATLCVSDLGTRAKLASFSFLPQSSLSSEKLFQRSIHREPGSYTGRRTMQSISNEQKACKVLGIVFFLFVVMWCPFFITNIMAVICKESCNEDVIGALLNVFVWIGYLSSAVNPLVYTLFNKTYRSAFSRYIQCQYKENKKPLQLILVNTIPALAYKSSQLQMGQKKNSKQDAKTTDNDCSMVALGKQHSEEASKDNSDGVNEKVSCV

5-HT2B receptor = 5-HT2B receptor (Homo sapiens, UniProt P41595); conditions: cited from earlier work
Chain of 5-HT2B receptor (P41595 whole entry): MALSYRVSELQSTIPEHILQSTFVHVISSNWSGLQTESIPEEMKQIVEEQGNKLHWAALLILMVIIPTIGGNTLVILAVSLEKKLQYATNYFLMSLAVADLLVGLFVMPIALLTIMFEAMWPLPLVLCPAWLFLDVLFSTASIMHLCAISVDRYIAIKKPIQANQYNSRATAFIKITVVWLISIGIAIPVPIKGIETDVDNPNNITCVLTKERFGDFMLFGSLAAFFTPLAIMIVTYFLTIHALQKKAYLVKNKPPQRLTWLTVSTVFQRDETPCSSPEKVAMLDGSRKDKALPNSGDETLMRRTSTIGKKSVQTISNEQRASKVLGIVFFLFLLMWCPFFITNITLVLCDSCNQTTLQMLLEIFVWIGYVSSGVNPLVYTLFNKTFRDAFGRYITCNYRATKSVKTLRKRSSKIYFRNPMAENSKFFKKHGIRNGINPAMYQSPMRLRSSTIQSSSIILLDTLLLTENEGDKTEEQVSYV

5-HT2C receptor = target: T1, 5-HT2C receptor (Homo sapiens, UniProt P28335); conditions: cited from earlier work
T1 sequence (P28335 33-458): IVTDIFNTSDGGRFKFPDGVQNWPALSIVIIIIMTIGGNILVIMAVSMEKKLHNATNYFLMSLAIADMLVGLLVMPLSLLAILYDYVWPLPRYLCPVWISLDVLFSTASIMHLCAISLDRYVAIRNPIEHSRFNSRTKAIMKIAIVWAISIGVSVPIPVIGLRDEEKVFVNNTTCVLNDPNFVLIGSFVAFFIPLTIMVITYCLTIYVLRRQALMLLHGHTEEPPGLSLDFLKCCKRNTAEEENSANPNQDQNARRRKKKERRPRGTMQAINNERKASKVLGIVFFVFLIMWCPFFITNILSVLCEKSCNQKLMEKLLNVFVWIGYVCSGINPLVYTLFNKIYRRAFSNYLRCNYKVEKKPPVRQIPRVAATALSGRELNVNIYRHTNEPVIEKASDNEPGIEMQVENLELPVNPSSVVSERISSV

For NC(=O)NC[C@@H]1CCCc2cc(S(=O)(=O)c3cccc(F)c3)ccc21 [SYN120], the “Plasma concentration of SYN120, individual samples” value ([1]; time range 0.5 h-1.5 h) was 1310 ng/mL and 297 ng/mL and 116 ng/mL and 476 ng/mL and 326 ng/mL and 8.57 ng/mL and 309 ng/mL, the “Plasma concentration of SYN120, individual samples” value ([1]; time range 1.5 h-2.5 h) was 120 ng/mL and 558 ng/mL and 314 ng/mL and 705 ng/mL and 229 ng/mL and 235 ng/mL and 430 ng/mL and 581 ng/mL and the “Plasma concentration of SYN120, individual samples” value ([1]; time range 2.5 h-3.5 h) was 1660 ng/mL and 355 ng/mL and 473 ng/mL and 410 ng/mL and 1220 ng/mL and 1620 ng/mL and 767 ng/mL. The “Plasma concentration of SYN120, individual samples” value ([1]; time range 3.5 h-4.5 h) was 1330 ng/mL and 855 ng/mL and 24.2 ng/mL and 467 ng/mL and 1190 ng/mL and 1470 ng/mL, the “Plasma concentration of SYN120, individual samples” value ([1]; time range 4.5 h-7.5 h) was 1160 ng/mL and 124 ng/mL and 344 ng/mL and 989 ng/mL and 1210 ng/mL and 850 ng/mL and the “Plasma concentration of SYN120, Max” value ([1]; time range 0.5 h-1.5 h) was 1310 ng/mL. The “Plasma concentration of SYN120, Median” value ([1]; time range 0.5 h-1.5 h) was 309 ng/mL, the “Plasma concentration of SYN120, Min” value ([1]; time range 0.5 h-1.5 h) was 8.57 ng/mL and the “Plasma concentration of SYN120, Mean” value ([1]; time range 0.5 h-1.5 h, n 7) was 406.1 ng/mL. For the same molecule, the “Plasma concentration of SYN120, Max” value ([1]; time range 1.5 h-2.5 h) was 705 ng/mL, the “Plasma concentration of SYN120, Median” value ([1]; time range 1.5 h-2.5 h) was 372 ng/mL and the “Plasma concentration of SYN120, Min” value ([1]; time range 1.5 h-2.5 h) was 120 ng/mL. For the same molecule, the “Plasma concentration of SYN120, Mean” value ([1]; time range 1.5 h-2.5 h, n 8) was 396.5 ng/mL, the “Plasma concentration of SYN120, Max” value ([1]; time range 2.5 h-3.5 h) was 1660 ng/mL and the “Plasma concentration of SYN120, Median” value ([1]; time range 2.5 h-3.5 h) was 767 ng/mL. The “Plasma concentration of SYN120, Min” value ([1]; time range 2.5 h-3.5 h) was 355 ng/mL, the “Plasma concentration of SYN120, Mean” value ([1]; time range 2.5 h-3.5 h, n 7) was 929.3 ng/mL and the “Plasma concentration of SYN120, Max” value ([1]; time range 3.5 h-4.5 h) was 1470 ng/mL. The “Plasma concentration of SYN120, Median” value ([1]; time range 3.5 h-4.5 h) was 1023 ng/mL, the “Plasma concentration of SYN120, Min” value ([1]; time range 3.5 h-4.5 h) was 24.2 ng/mL and the “Plasma concentration of SYN120, Mean” value ([1]; time range 3.5 h-4.5 h, n 6) was 889.4 ng/mL. The “Plasma concentration of SYN120, Max” value ([1]; time range 4.5 h-7.5 h) was 1210 ng/mL, the “Plasma concentration of SYN120, Median” value ([1]; time range 4.5 h-7.5 h) was 920 ng/mL and the “Plasma concentration of SYN120, Min” value ([1]; time range 4.5 h-7.5 h) was 124 ng/mL. For the same molecule, the “Plasma concentration of SYN120, Mean” value ([1]; time range 4.5 h-7.5 h, n 6) was 779.5 ng/mL, the “time of peak plasma level after administration” value ([1]; once per day maintenance dosing) was 1 to 4 h and the pKi (5-HT2A receptor) was 7.8. For the same molecule, the pKi (5-HT2B receptor) was 7.7 and the pKi (5-HT2C receptor) was 8.1.
